We go through three compounds from patent US20240132479A1, “THERAPEUTIC COMPOUNDS AND USES THEREOF” (Board of Trustees of Michigan State University, priority 2021, published 2024).

SMILES strings stand for the structures. Values after ≈ are worked out from the molar mass of the structure shown. Read-outs that look alike come from different tables or passages of the source.

The subject of one data set is Mtb H37Rv. The experiment in a line: MIC determination in microdilution assay, Mtb H37Rv. Conditions: Mycobacterium tuberculosis. It is filed as cell-based. Background: In broth dilution the organism is exposed to a series of concentrations in liquid medium.
For data set [1], the system named is M. abscessus (ATCC 19977). The experiment in a line: MIC determination in microdilution assay, M. abscessus. Format: cell-based, Mycobacterium abscessus. To be noted: Mycobacteroides abscessus, ATCC19977; read-out: MIC M. abcessus 19977.
A further data set is described as follows: in vitro. Format: cell-based. To be noted: human. The method, then:
(§1) The compounds of Examples 2, 21A, and 19 were tested for 1) for ex vivo efficacy and 2) cytotoxicity. Ex vivo efficacy was determined by inhibition of Mycobacterium tuberculosis (Mtb) H37Rv, Mycobacterium avium complex (ATCC 700891 MAC 101), and Mycobacterium abscessus (ATCC 19977). Cytotoxicity tests were carried out against three human cell lines, THP-1 (ATCC TIB-202), HepG2 (ATCC HB-8065), and HeLa (ATCC CCL-2), IC50 values were calculated from dose response curves to determine cytotoxicity of test compounds. […] Of the three compounds tested for ex vivo efficacy against NTM strains, there was no activity (>32 mg/L) against M. avium and one compound with activity against M. abscessus. […] These compounds were not cytotoxic (>128 mg/L) against HepG2 and HeLa cells. The compounds average therapeutic index for HepG2 was 12.4-48.3 and 96.7-389 for HeLa.

Data set [2] deals with Mycobacterium avium complex (ATCC 700891 MAC 101). The experiment in a line: Ex vivo efficacy, M. avium. It is filed as cell-based. The method, then: as §1
Data set [3] relates to M. avium (ATCC 700891 MAC 101). The experiment in a line: MIC determination in microdilution assay, M. avium. It is filed as cell-based. To be noted: Mycobacterium avium, ATCC700891.
The test system of data set [4] is Mycobacterium abscessus (ATCC 19977). Description: Ex vivo efficacy, M. abscessus. It is filed as cell-based. The procedure: as §1
[5] abbreviates: HeLa cells, read-out: HeLa Cytotoxicity (IC50 μg/ml).
[6] abbreviates: HepG2 cells, read-out: HepG2 Cytotoxicity (IC50 μg/ml).
The mark [7] stands for this setting: THP-1 cells, read-out: THP-1 Cytotoxicity (IC50 μg/ml).

The term MIC denotes the smallest concentration in the dilution series that meets the test's criterion for growth inhibition. By melting point is commonly meant the temperature, or range, at which the solid turns liquid. On to `Cc1cc2nc(SCC(=O)N(C(C)C)C(C)C)[nH]c2cc1C` [Example 2, 2-[(5,6-dimethyl-1H-1,3-benzodiazol-2-yl)sulfanyl]-N,N-bis(propan-2-yl)acetamide], for which the melting point worked out at 172 °C. In the data set on Mtb H37Rv, this compound showed an MIC of 0.5 µg/mL (≈ 1.57 µM). In addition, the minimal inhibitory concentration (MIC) in data set [1] amounted to 4 µg/mL (≈ 12.5 µM). Further, the IC50 in “in vitro” (setting [5]) was 4 µg/mL (≈ 12.5 µM). For the same compound, the IC50 in “in vitro” (setting [6]) was found to be 0.5 µg/mL (≈ 1.57 µM). Moreover, the IC50 in “in vitro” (setting [7]) stood at 0.5 µg/mL (≈ 1.57 µM). For the same compound, the “M. avium ex vivo efficacy (>90% inhibition μg/ml)” value in data set [2] stood at 0.5 µg/mL. In addition, the minimal inhibitory concentration (MIC) in data set [3] is over 64 µg/mL. The “M. abscessus ex vivo efficacy (>90% inhibition μg/ml)” value in data set [4] is 0.25 µg/mL.

As for `CC(C)N(C(=O)CCc1nc2cc(Cl)c(Cl)cc2[nH]1)C(C)C` [Example 19], the MIC against Mtb H37Rv is at most 0.125 µg/mL; in data set [1], 1 µg/mL (≈ 2.92 µM); in data set [3], 8 µg/mL (≈ 23.4 µM). The IC50 in “in vitro” (setting [5]) was 1 µg/mL (≈ 2.92 µM); in “in vitro” (setting [6]) it was at most 0.125 µg/mL; in the data set “in vitro” (setting [7]) it was at most 0.125 µg/mL. Besides, the “M. avium ex vivo efficacy (>90% inhibition μg/ml)” value in data set [2] is at most 0.125 µg/mL. For the same compound, in data set [4], the “M. abscessus ex vivo efficacy (>90% inhibition μg/ml)” value was at most 0.125 µg/mL.

Consider `Cc1cc2nc(CCC(=O)N(C(C)C)C(C)C)[nH]c2cc1C` [Example 21A], for which the results for the MIC (in the data set with Mtb H37Rv; in data set [1]; in data set [3]) were 0.25 µg/mL (≈ 0.829 µM), 2 µg/mL (≈ 6.63 µM) and 16 µg/mL (≈ 53.1 µM), respectively. The IC50 in the data set “in vitro” (setting [5]) is 2 µg/mL (≈ 6.63 µM); in the data set “in vitro” (setting [6]) it was at most 0.125 µg/mL; in the data set “in vitro” (setting [7]), at most 0.125 µg/mL. For the same compound, in data set [2], the “M. avium ex vivo efficacy (>90% inhibition μg/ml)” value turned out to be 0.25 µg/mL. Also, the “M. abscessus ex vivo efficacy (>90% inhibition μg/ml)” value in data set [4] was determined as 0.25 µg/mL.
